Consider one molecule from patent US6653301B2, “Pyrazole compounds useful as protein kinase inhibitors” (Vertex Pharmaceuticals Incorporated, priority 2000, dated 2003).

Molecules are shown by their SMILES.

Usually melting point stands for the temperature of the solid-liquid transition. In the case of `COc1cccc(Nc2nc(Nc3cc(C)n[nH]3)c3ccccc3n2)c1` [IIc-56, [2-(3-Methoxyphenylamino)-quinazolin-4-yl]-(5-methyl-2H-pyrazol-3-yl)-amine], the melting point lay in the range of 212 to 215 °C.
